Source: patent US8299092B2, “Derivatives of 2-phenyl-3-hydroxyquinoline-4(1H)-one and methods of their preparation and utilization” (Univerzita Palackeho, priority 2006, dated 2012)
Read-outs that look alike come from different tables or passages of the source.

Assays:
[1] = system: concavaline A-stimulated human lymphocytes; test: MTT test, inhibition of lymphocyte activation with ConA; type: cell-based; details: 5 μg/ml, mean (x)
Description: The proliferation response of isolated lymphocytes to polyclonal mitogens belongs to the most important parameters of specific cell immunity. Most of the human lymphocytes occur in quiet state. Antigens or polyclonal mitogens, however, are capable of activating lymphatic cells, which is accompanied by dramatic changes of their cell metabolism (enhanced mitochondrial activity, protein and nucleic acid synthesis, formation of blastic cells and proliferations). Substances having the capability to suppress such processes show immunosuppressive activity in clinical conditions and, therefore, these tests can be used for screening tests of immunosuppressive activity in vitro. On this account, we use the above-mentioned MTT test, which evaluates both the survival and the proliferation activity of quiet vs. polyclonal-mitogen (concavaline A, 5 μg/ml)-stimulated human lymphocytes to screen the immunosuppressive activity of new substances (Jegorov et al., J. Mass. Spetrom., 2006).

[2] = system: K562 (human myeloid leukaemia); test: MTT cytotoxic test, K562; type: cell-based; details: K 562 cells, mean (x), read-out: Cytotoxic and antiproliferation activity MTT test (IC50, μM) K 562 x
Description: (§1) In order to evaluate antitumour activity of the new prepared substances in vitro, we used the MTT cytotoxic test on cell lines derived from normal tissues and tumours. In particular, they included the NIH 3T3 (mouse fibroblasts), K562 (human myeloid leukaemia), K562-tax (human myeloid leukaemia resistant to taxol and the overexpressing protein of the PgP multiple drug resistance), CEM (T-lymphoblastic leukaemia), CEM-DNR-bulk (T-lymphoblastic leukaemia resistant to doxorubicine, lacking the expression of target gene for inhibitors of topoisomerase II alpha) and the line A549 (human lung adenocarcinoma).

[3] = system: CEM-DNR-bulk (T-lymphoblastic leukaemia resistant to doxorubicine); test: MTT cytotoxic test, CEM-DNR-bulk; type: cell-based; details: CEM-DNR-BULK cells, mean (x); read-out: Cytotoxic and antiproliferation activity MTT test (IC50, μM) CEM-DNR-BULK x
Description: as §1

[4] = system: A549 (human lung adenocarcinoma); test: MTT cytotoxic test, A549; type: cell-based; details: A 549 cells, mean (x), read-out: Cytotoxic and antiproliferation activity MTT test (IC50, μM) A 549 x
Description: as §1

[5] = system: K562-tax (human myeloid leukaemia resistant to taxol); test: MTT cytotoxic test, K562-tax; type: cell-based; details: K562-TAX cells, mean (x), read-out: Cytotoxic and antiproliferation activity MTT test (IC50, μM) K562-TAX x
Description: as §1

[6] = system: CEM (T-lymphoblastic leukaemia); test: MTT cytotoxic test, CEM; type: cell-based; details: CEM cells, mean (x), read-out: Cytotoxic and antiproliferation activity MTT test (IC50, μM) CEM x
Description: as §1

Structure (SMILES) | IC50 [1] | IC50 [2] | IC50 [3] | IC50 [4] | IC50 [5] | IC50 [6] | also measured
O=c1c(O)c(-c2ccc(NCCCCCO)c([N+](=O)[O-])c2)[nH]c2ccccc12 [—NH(CH2)5OH] | 0.6 µM | 2.8 µM | 10.8 µM | 5.3 µM | 5.7 µM | 1 µM | 
O=c1c(O)c(-c2ccc(NCCO)c([N+](=O)[O-])c2)[nH]c2ccccc12 [—NH(CH2)2OH] | 3.8 µM | 7.3 µM | 98.8 µM | 46.8 µM | 44.9 µM | 2.7 µM | 
CCCCCCn1cnc2cc(-c3[nH]c4ccccc4c(=O)c3O)ccc21 [—(CH2)5CH3] |  | 8.5 µM | 54 µM | 44.3 µM | 35 µM | 2.8 µM | 
O=c1c(O)c(-c2ccc(-n3ccnc3)c([N+](=O)[O-])c2)[nH]c2ccccc12 [Example 8, 3-Hydroxy-2-[4-(1H-imidazole-1-yl)-3-nitrophenyl]quinoline-4(1H)-one] |  |  |  |  |  |  | melting point: 278 to 280 °C
O=CNCCn1cnc2cc(-c3[nH]c4ccccc4c(=O)c3O)ccc21 [—CH2CH2NHCHO] | 1.1 µM |  |  |  |  |  | 
CCN(C)c1ccc(-c2[nH]c3ccccc3c(=O)c2O)cc1[N+](=O)[O-] [—N(CH3)(CH2CH3)] | 5.7 µM | 0.7 µM | 129 µM | 66.5 µM | 163 µM | 1.7 µM | 
O=c1c(O)c(-c2ccc(Sc3ccccc3)c([N+](=O)[O-])c2)[nH]c2ccccc12 [Example 7, 3-Hydroxy-2-[3-nitro-4-(phenylthio)phenyl]quinoline-4(1H)-one] |  |  |  |  |  |  | melting point: 322 to 324 °C
O=c1c(O)c(-c2ccc3c(c2)ncn3CC(F)(F)F)[nH]c2ccccc12 | 4.2 µM |  |  |  |  |  | 
C/C=C/CCSc1ccc(-c2[nH]c3ccccc3c(=O)c2O)cc1[N+](=O)[O-] |  | 9.3 µM | 3.2 µM | 4.3 µM | 5.2 µM | 2.1 µM | 
CCCN(CCC)c1ccc(-c2[nH]c3ccccc3c(=O)c2O)cc1[N+](=O)[O-] [—N(CH2CH2CH3)2] | 0.9 µM | 0.6 µM | 2.2 µM | 1.1 µM | 1.2 µM | 0.7 µM | 
O=c1c(O)c(-c2ccc(N(CCO)CCO)c([N+](=O)[O-])c2)[nH]c2ccccc12 [—N(CH2CH2OH)2] | 0.9 µM | 187 µM | 143 µM | 224 µM | 198 µM | 0.3 µM | 
CC(C)Nc1ccc(-c2[nH]c3ccccc3c(=O)c2O)cc1[N+](=O)[O-] [—NHCH(CH3)2] | 4.8 µM | 2.1 µM | 6.8 µM | 2.8 µM | 3 µM | 1.6 µM | 
O=c1c(O)c(-c2ccc(N3CCN(CCO)CC3)c([N+](=O)[O-])c2)[nH]c2ccccc12 |  |  |  |  |  |  | melting point: 218 to 221 °C
O=c1c(O)c(-c2ccc3c(c2)ncn3CCSCCO)[nH]c2ccccc12 [—(CH2)2S(CH2)2OH] |  | 3.1 µM | 2.2 µM | 3.6 µM | 4.5 µM | 0.8 µM | 
CCNc1ccc(-c2[nH]c3ccccc3c(=O)c2O)cc1[N+](=O)[O-] [Example 6, 2-[4-(Ethylamino)-3-nitrophenyl]-3-hydroxyquinoline-4(1H)-one] |  |  |  |  |  |  | melting point: 282 to 285 °C
O=c1c(O)c(-c2ccc(F)c([N+](=O)[O-])c2)[nH]c2ccccc12 [F] | 3.8 µM |  |  |  |  |  | 
O=c1c(O)c(-c2ccc(NCCCCO)c([N+](=O)[O-])c2)[nH]c2ccccc12 [—NH(CH2)4OH] | 1.1 µM | 1.8 µM | 15.1 µM | 5.7 µM | 8.6 µM | 0.7 µM | 
O=c1c(O)c(-c2ccc(Cl)c([N+](=O)[O-])c2)[nH]c2ccccc12 [Cl, 2-(4-Chlorine-3-nitrophenyl)-3-hydroxyquinoline-4(1H)-one] |  | 2.3 µM | 3.5 µM | 4.2 µM | 3.2 µM | 2.6 µM | 
CCN(CC)CCn1cnc2cc(-c3[nH]c4ccccc4c(=O)c3O)ccc21 [—(CH2)2N(C2H5)2] |  | 2.1 µM | 71.2 µM | 3.5 µM | 6.5 µM | 5.2 µM | 
O=c1c(O)c(-c2ccc(NCCCO)c([N+](=O)[O-])c2)[nH]c2ccccc12 [—NH(CH2)3OH, 3-Hydroxy-2-{4-[(3-hydroxypropyl)amino]-3-nitrophenyl}quinoline-4(1H)-one] |  |  | 46.3 µM |  |  |  | IC50 ([1]; Lymphocyte): 0.8 µM; IC50 ([2]; Homo sapiens, K562): 6.2 µM; melting point: 233 to 236 °C; IC50 ([4]; Homo sapiens, A549): 12.4 µM; IC50 ([5]; Homo sapiens): 12.9 µM; IC50 ([6]; Homo sapiens, CCRF-CEM): 1.4 µM
O=c1c(O)c(-c2ccc(N3CCN(CCOCCO)CC3)c([N+](=O)[O-])c2)[nH]c2ccccc12 [Example 5, 3-Hydroxy-2-(4-{4-[2-(2-hydroxyethoxy)ethyl]piperazine-1-yl}-3-nitrophenyl)quinoline-4(1H)-one] |  |  |  |  |  |  | melting point: 203 to 204 °C
